Data on eleven compounds can be found in ChEMBL document CHEMBL1146477, “Bioactive constituents from Asparagus cochinchinensis” (J Nat Prod, 2004).

Where only a bound is given, the exact number is not on record here.

Series [1] deals with Lu1. The series can be described thus: Cytotoxicity against human Lu1 cells. In kind it is functional, cell-based.
In series [2] the test system is KB. The series can be described thus: Cytotoxicity against human KB cells. In kind it is functional, cell-based.
The subject of series [3] is HUVEC. The series can be described thus: Cytotoxicity against HUVEC. Particulars: Homo sapiens. It is filed as cell-based.
A short description of series [4]: Cytotoxicity against human HOG.R5 cells. It is filed as cell-based.
The subject of series [5] is Col2. Briefly: Cytotoxicity against human Col2 cells. In kind it is functional, cell-based.
In series [6] the test system is LNCaP. Briefly: Cytotoxicity against human LNCAP cells. In kind it is functional, cell-based.
Series [7] deals with Human immunodeficiency virus 1. Briefly: Antiviral activity against HIV1 3B infected in human HOG.R5 cells after 4 days. It is filed as functional, organism-based. Particulars: Human immunodeficiency virus 1, 3B, HOG.R5, 96 h.

With `COc1cc(C#C/C=C/COc2ccc(O)cc2)ccc1O`, the half-inhibitory concentration (IC50) in series [1] was 66.5 µM; in series [2], 40.5 µM; in series [3] it was over 20 µg/mL; in series [5] it was over 20 µg/mL; in series [6], over 20 µg/mL. Besides, in series [4], the CC50 is under 17 µM.

`C=CC(/C=C\c1ccc(O)cc1)c1ccc(OC)c(O)c1` (stereo not given): the IC50 in series [1] came out at 25.5 µM; in series [2] it was 31.9 µM; in series [3], 58.1 µM; in series [5], 41.4 µM; in series [6], 41.1 µM. For the same compound, the cytotoxic concentration (CC50) in series [4] is 12 µM.

Take `C=CC(CC(=O)c1ccc(O)cc1)c1ccc(O)cc1` (stereo not given): the IC50 is over 20 µg/mL in series [1]; over 20 µg/mL in series [2]; over 20 µg/mL in series [3]; 74.6 µM in series [7]; over 20 µg/mL in series [5]; over 20 µg/mL in series [6]. Also, the half-maximal cytotoxic concentration (CC50) in series [4] came to 76.8 µM.

On to `C=CC(/C=C\c1ccc(O)cc1)c1ccc(O)c(OC)c1` (stereo not given), for which the IC50 in series [1] turned out to be 15.9 µM; in series [2], 31.9 µM; in series [3] it was 23.7 µM; in series [5], 22.3 µM; in series [6], 23.4 µM. The compound also gave a CC50 in series [4] of 24.1 µM.

For the compound `C[C@H]1CC[C@@]2(OC1)O[C@H]1C[C@H]3[C@@H]4CC[C@@H]5C[C@@H](O[C@@H]6O[C@H](CO[C@@H]7OC[C@H](O)[C@H](O)[C@H]7O)[C@@H](O[C@@H]7OC[C@H](O)[C@H](O)[C@H]7O)[C@H](O)[C@H]6O[C@@H]6O[C@H](CO)[C@@H](O)[C@H](O)[C@H]6O)CC[C@]5(C)[C@H]4CC[C@]3(C)[C@H]1[C@@H]2C` [ASPARACOSIDE], the IC50 in series [1] was 4.2 µM; in series [2], 4.8 µM; in series [3], 4.1 µM; in series [5], 5.4 µM; in series [6], 10.1 µM. The CC50 in series [4] was under 10 µM.

As to `C[C@@H]1CC[C@@]2(OC1)O[C@H]1C[C@H]3[C@@H]4CCC5=CC(=O)CC[C@]5(C)[C@H]4C[C@@H](O)[C@]3(C)[C@@]1(O)[C@@H]2C` [ASPARACOSIN A], the IC50 in series [1] was over 20 µg/mL; in series [2], 24.1 µM; in series [3] it was over 20 µg/mL; in series [5], over 20 µg/mL; in series [6] it was over 20 µg/mL.

As to `COC1(OC)CC[C@@]2(C)[C@H](CC[C@@H]3[C@@H]2CC(=O)[C@@]2(C)[C@H]3C[C@@H]3O[C@]4(CC[C@@H](C)CO4)[C@@H](C)[C@@]32O)C1` [ASPARACOSIN B], the IC50 in series [1], in series [2], in series [3], in series [5] and in series [6] was over 20 µg/mL throughout.

On to `Oc1ccc(C#C/C=C/COc2ccc(O)cc2)cc1` [ASPARENYDIOL], for which the concentration for half-maximal inhibition (IC50) in series [1] is 70.1 µM; in series [2] it was 8.5 µM; in series [3], over 20 µg/mL; in series [5], over 20 µg/mL; in series [6], over 20 µg/mL. This compound came in with a CC50 in series [4] of under 18 µM.

As to `COc1cc(/C=C/CO)ccc1O` [CONIFERYL ALCOHOL], the IC50 in series [1], in series [2], in series [3], in series [5] and in series [6] was over 20 µg/mL in each case.

Consider `Cc1c2ccncc2c(C)c2c1[nH]c1ccccc12` [ELLIPTECINE], for which the 50% inhibitory concentration (IC50) in series [1] was found to be 0.08 µM; in series [2], 0.16 µM; in series [3], 0.37 µM; in series [5], 1.22 µM; in series [6], 3.25 µM. This compound showed a 50% cytotoxic concentration (CC50) in series [4] of 0.08 µM.

Regarding `C=C[C@H](/C=C\c1ccc(O)cc1)c1ccc(O)cc1` [NYASOL], the IC50 was over 20 µg/mL in series [1]; over 20 µg/mL in series [2]; over 20 µg/mL in series [3]; 46.4 µM in series [7]; over 20 µg/mL in series [5]; over 20 µg/mL in series [6]. The compound further displayed a cytotoxic concentration (CC50) in series [4] of 58.1 µM.

One may read the IC50 as the concentration that gives 50% inhibition. The low end stands for greater potency in that assay, the high end for weaker potency in that assay. As a reminder, the CC50 is the concentration at which the toxic effect on the cells reaches its halfway point. A higher CC50 goes with lower toxicity to the cells.
